Laboratory results as given in publication PMC9605497, “Potential of Epidermal Growth Factor-like Peptide from the Sea Cucumber Stichopus horrens to Increase the Growth of Human Cells: In Silico Molecular Docking Approach” (Marine Drugs, 2022).
“Also recorded” adds a separate entry of the source.

Assays:
[1] = system: human melanoma cells (CRL-1872); assay: Cell morphology observation; assay type: cell-based
Description: (§1) Human melanoma cells (CRL-1872) were purchased from ATCC, Rocksville, MD, USA. Cells were cultured in a complete growth medium, which consisted of Minimum Essential Medium (MEM) (Gibco, Waltham, MA, USA) supplemented with 10% fetal bovine serum (FBS) (Invitrogen, Waltham, MA, USA) and 1% antibiotic–antimycotic (Invitrogen, Waltham, MA, USA), in a humidified incubator at 37 °C, equilibrated with 5% CO2. Cells were subcultured every two days until reaching confluency in T25 flask (TPP, Trasadingen, Switzerland) before being seeded in designated plates for specific experiment objectives.
(§2) Cells were seeded at 80,000 cells per well in a 24-well plate containing 400 µL of complete growth medium. After 24 h of culture, the medium was removed, washed once with PBS, replaced with serum-free medium and left to culture for another 16 h. The medium was removed and replaced with corresponding treatment medium, each in triplicates; 10 nM and 50 nM of Sh-EGFl-1, 10 nM and 50 nM of rhEGF were used as a positive control and serum-free medium was used as a negative control. Cells were cultured in a single plate to track their growth every 24 h during the four days of experiment. […] A crossed line was made at the bottom of each well to mark the four cell-counting areas that were recorded daily using a microscope digital camera. Cells were counted manually based on the images visualized using ImageJ version 2.0.

[2] = system: human melanoma cells (CRL-1872); assay: Cell proliferation assay (cell counting); assay type: cell-based; conditions: for Average cell number: average over 0, 24, 48, 72 and 96 h; for number of cells vs serum-free medium: four days, triplicates; for duration of temporary increment of cell numbers: cell numbers dropped drastically after the medium change
Description: as §1, §2

[3] = 50 nM, recovery from serum starvation

H-MNSDSECPLSHDGYCLHDGVCMYIEALDKYACNCVVGYIGERCQYRDLKWWELR-OH (disulfide) [rhEGF, Recombinant human EGF purchased from Thermo Scientific, reference compound]
cell morphology / attachment [1, 3]: better recovery as the cells were elongated when they attached to the flask surface | Average cell numbers ([2]; 0 h, 10 nM): 2115 | Average cell numbers ([2]; 0 h, 50 nM): 1331 | Average cell number ([2]; 10 nM): 810 | number of cells vs serum-free medium ([2]; 50 nM): significantly higher | Average cell number ([2]; 50 nM): 1166 | duration of temporary increment of cell numbers ([2]; 50 nM): 48 h | Average cell numbers ([2]; 24 h, 10 nM): 712 | Average cell numbers ([2]; 24 h, 50 nM): 1643 | Average cell numbers ([2]; 48 h, 10 nM): 399 | Average cell numbers ([2]; 48 h, 50 nM): 1741 | Average cell numbers ([2]; 72 h, 10 nM): 497 | Average cell numbers ([2]; 72 h, 50 nM): 663 | Average cell numbers ([2]; 96 h, 10 nM): 339 | Average cell numbers ([2]; 96 h, 50 nM): 438

H-NINECFSSPCENQGICQDEIDGYNCVCQPGFTGTHCESSMLNHVI-OH (disulfide) [Sh-EGFl-1, 45 amino acid EGF-like peptide from Stichopus horrens contig 498513, synthesized by Fmoc solid-phase peptide chemistry]
cell morphology / attachment ([1]; 10 nM, recovery from serum starvation and after medium change at 48 h): better recovery as the cells were elongated when they attached to the flask surface; also recorded: most of the cells to lose attachment from the flask except in the presence of 10 nM Sh-EGFl-1 | cell morphology / attachment [1, 3]: better recovery as the cells were elongated when they attached to the flask surface | Average cell numbers ([2]; 0 h, 10 nM): 1781 | Average cell numbers ([2]; 0 h, 50 nM): 1382 | number of cells vs serum-free medium ([2]; 10 nM): not significantly different compared with the serum-free treatment | cell number over time ([2]; 10 nM, until day 4): increased numbers until the end of the experiment on day 4 | number of cells vs serum-free medium ([2]; 50 nM): significantly higher | duration of temporary increment of cell numbers ([2]; 50 nM): 48 h | Average cell numbers ([2]; 24 h, 10 nM): 1413 | Average cell numbers ([2]; 24 h, 50 nM): 1637 | Average cell numbers ([2]; 48 h, 10 nM): 1559 | Average cell numbers ([2]; 48 h, 50 nM): 1753 | Average cell numbers ([2]; 72 h, 10 nM): 1674 | Average cell numbers ([2]; 72 h, 50 nM): 1094 | Average cell numbers ([2]; 96 h, 10 nM): 1816 | Average cell numbers ([2]; 96 h, 50 nM): 862 | human cell growth ([2]; lower concentration, cell proliferation assay): significantly improved | cell adherence, survival and proliferation ([2]; melanoma cells): cells are able to maintain their adherent properties, as well as survive and proliferate, albeit rather slowly
